By EC50 is commonly meant the concentration that produces a half-maximal response. A word on the pEC50: it is the EC50 on a negative log10 scale, so that one unit is a factor of ten. The term solubility denotes the concentration that dissolves in the medium under given conditions. What is called chromatographic logD is a lipophilicity value derived from retention on a column.

The values that follow come from US10000452B1, “Quinolone-based compounds, formulations, and uses thereof” (University of South Florida, priority 2016, dated 2018).

pEC50: −log10 of the molar value. In brackets after ≈: the same amount, converted by molar mass. Where two headings read alike, the source gives them in different places.

The subject of data set [1] is malarial strain W2 (pyrimethamine and chloroquine-resistant). The data set is described as follows: in vitro antimalarial activity against multidrug resistant strain W2. It is filed as cell-based, P. falciparum. The settings on record: Plasmodium falciparum; for EC50: read-out: EC50 W2 (nM).
For data set [2], the system named is P. berghei sporozoites expressing luciferase. The data set is described as follows: in vitro liver stage activity, luciferase sporozoites infecting HEPG2 hepatoma cells. To be noted: Plasmodium berghei; for pEC50: HEPG2 cells. In kind it is cell-based.
In data set [3] the test system is J774 mammalian cells. The data set is described as follows: cytotoxicity to J774 cells. It is filed as cell-based. To be noted: Mus musculus, J774, read-out: EC50 J774 (μM). Here is the method:
This allowed a simplified method for comparing the different assays being simultaneously run. Additionally, each compound was also tested for cytotoxicity using mammalian J774 cell lines in a 96-well plate format.^12-14, 16

Data set [4] is described as follows: aqueous solubility (LC/MS- or HPLC-based assay). In kind it is physicochemical. From the text:
(§1) Furthermore, to profile the properties of the piperazinyl-4(1H)-quinolones, and to identify potential limitations, aqueous solubility and lipophilicity log D were experimentally determined via LC/MS-based assays as described by the Manetsch laboratory previously^8,10,31,32 (Tables 9-12). Encouragingly, the piperazinyl-4(1H)-quinolones were much more soluble than the previously described phenoxyethoxy-4(1H)-quinolone analogues.^19 As expected, the solubility of all compounds was affected by pH, with better solubility under more acidic conditions.
(§2) In parallel to testing the compounds for in vitro antimalarial activity, a limited structure-property relationship (SPR) study focusing on log D and aqueous solubility was conducted to assess potential physiochemical liabilities (FIG. 22). […] For these reasons, physicochemical properties were not strongly considered as selection criteria for in vivo efficacy studies.

Data set [5] can be described thus: lipophilicity log D at pH 7.4. The settings on record: octanol/water. In kind it is physicochemical.
Source text: as §1, §2

Data set [6] has as its system Pb-infected mice. The data set is described as follows: in vivo efficacy scouting assay against blood stages. The settings on record: single oral 50 mg/kg dose 1 day PI. Also noted: species or system P. berghei; mice. Here is the method: The screening involved a single oral 50 mg/kg dose 1 day post infection (PI) and an assessment of parasitemia on days 3 PI and 6 PI (Table 6).
The screening was performed by treating two infected mice with a single 50 mg/kg oral dose of test compound suspended in PEG400 on day 1 postexposure (PE) followed by assessing parasitemia on days 3 and 6 PE.

In data set [7] the test system is malarial strain TM90-C2B (mefloquine, chloroquine, atovaquone, and pyrimethamine-resistant). The data set is described as follows: microbe, parasite or virus in culture. It is filed as cell-based, P. falciparum. The settings on record: for EC50: Plasmodium falciparum, TM90, read-out: EC50 TM90-C2B (nM); for RI: RI = EC50 TM90-C2B/EC50 W2. From the text: Ideally, the RI of a compound should lie between 0.3 and 3.0 in order to avoid rapidly inducing resistance in the parasite. […]

Setting [8] is: aqueous medium, pH 2, simulated gastric fluid, pH 2.0, read-out: Solubility pH 2.0.
The mark [9] stands for this setting: aqueous solution, pH 2, simulated gastric fluid, pH 2.0, read-out: Solubility pH 2.0.
The mark [10] stands for this setting: aqueous solution, pH 6.5, aqueous buffer, pH 6.5, read-out: Solubility pH 6.5.
[11] abbreviates: aqueous medium, pH 6.5, aqueous buffer, pH 6.5, read-out: Solubility pH 6.5.
The mark [12] stands for this setting: aqueous solution (buffer not named), pH 2, simulated gastric fluid, pH 2.0, read-out: Solubility pH 2.0.
The mark [13] stands for this setting: aqueous solution (buffer not named), pH 6.5, aqueous buffer, pH 6.5, read-out: Solubility pH 6.5.

Take `COC(=O)c1c[nH]c2cc(N3CCN(c4ccccc4)CC3)ccc2c1=O` [Compound 8a, Methyl 4-oxo-7-(4-phenylpiperazin-1-yl)-1,4-dihydroquinoline-3-carboxylate]: the half-maximal effective concentration (EC50) in data set [1] is 4.45 nM; in data set [3] it was more than 20 µM. For the same molecule, the pEC50 in data set [2] is 7.13. In addition, in data set [4] (setting [8]), the solubility was 1 to 19.9 µM (≈ 0.363 to 7.23 µg/mL). In addition, the chromatographic logD in data set [5] was found to be 2.58. The “% Inhibition Day 6 PI” value in data set [6] (vs untreated animals) is recorded as “little to moderate protection”.
Consider `COC(=O)c1c[nH]c2cc(CN3CCN(c4ccc(F)cc4)CC3)c(OC)cc2c1=O` [Compound 8aa, Methyl 7-((4-(4-fluorophenyl)piperazin-1-yl)methyl)-6-methoxy-4-oxo-1,4-dihydroquinoline-3-carboxylate], for which the EC50 in data set [1] was 1.79 nM; in data set [7], 218 nM; in data set [3], more than 20 µM. Also, the pEC50 in data set [2] is 7.49. In addition, the solubility in data set [4] (setting [9]) was 60 to 79.9 µM (≈ 25.5 to 34 µg/mL); in data set [4] (setting [10]) it was not below 80 µM. This molecule returned a chromatographic logD in data set [5] of 1.31. Besides, in data set [6] (result in words), the “activities in these scout assays” value is given as “excellent activities”. Moreover, the “% Inhibition Day 6 PI” value in data set [6] (vs untreated animals) stood at 56.9%.
For `COC(=O)c1c[nH]c2cc(CCN3CCN(Cc4ccccc4)CC3)ccc2c1=O` [Compound 8ad, Methyl 7-(2-(4-benzylpiperazin-1-yl)ethyl)-4-oxo-1,4-dihydroquinoline-3-carboxylate], the half-maximal effective concentration (EC50) in data set [1] was 116 nM; in data set [7], 6170 nM; in data set [3], more than 20 µM. The same molecule showed a pEC50 in data set [2] of 6.80. Further, the solubility in data set [4] (setting [8]) and in data set [4] (setting [11]) was not below 80 µM in each case. In addition, the chromatographic logD in data set [5] is 1.72.
Turning to `COC(=O)c1c[nH]c2ccc(CN3CCN(c4ccccc4)CC3)cc2c1=O` [Compound 8af, Methyl 4-oxo-6-((4-phenylpiperazin-1-yl)methyl)-1,4-dihydroquinoline-3-carboxylate], the EC50 is 151 nM in data set [1], 3200 nM in data set [7] and more than 20 µM in data set [3]. The molecule further displayed an RI in data set [7] of 21.2. The molecule also gave a pEC50 in data set [2] of 7.04. In addition, the solubility is not below 80 µM in data set [4] (setting [12]) and 20 to 39.9 µM (≈ 7.55 to 15.1 µg/mL) in data set [4] (setting [13]). Further, in data set [5], the chromatographic logD was found to be 2.03.
In the case of `COC(=O)c1c[nH]c2ccc(CN3CCN(c4ccc(OC)cc4)CC3)cc2c1=O` [Compound 8ag, Methyl 6-((4-(4-methoxyphenyl)piperazin-1-yl)methyl)-4-oxo-1,4-dihydroquinoline-3-carboxylate], the EC50 in data set [1] was 164 nM; in data set [7] it was 2900 nM; in data set [3] it was more than 20 µM. In data set [7], this molecule yielded an RI of 17.7. In data set [2], this molecule had a pEC50 of less than 7.00. Also, the solubility was not below 80 µM in data set [4] (setting [12]) and 20 to 39.9 µM (≈ 8.15 to 16.3 µg/mL) in data set [4] (setting [13]). The chromatographic logD in data set [5] came to 1.91. Besides, the “% Inhibition Day 6 PI” value in data set [6] (vs untreated animals) is “little to moderate protection”.
For `COC(=O)c1c[nH]c2ccc(CN3CCN(c4ccc(C(F)(F)F)cc4)CC3)cc2c1=O` [Compound 8ai, Methyl 4-oxo-6-((4-(4-(trifluoromethyl)phenyl)piperazin-1-yl)methyl)-1,4-dihydroquinoline-3-carboxylate], the half-maximal effective concentration (EC50) was 45.2 nM in data set [1], 2900 nM in data set [7] and more than 20 µM in data set [3]. This molecule returned an RI in data set [7] of 64.2. The molecule also gave a pEC50 in data set [2] of 7.07. Further, the solubility is not below 80 µM in data set [4] (setting [12]) and 1 to 19.9 µM (≈ 0.445 to 8.86 µg/mL) in data set [4] (setting [13]). Further, in data set [5], the chromatographic logD was found to be 3.01.
On to `COC(=O)c1c[nH]c2cc(N3CCN(Cc4ccccc4)CC3)ccc2c1=O` [Compound 8b, Methyl 7-(4-benzylpiperazin-1-yl)-4-oxo-1,4-dihydroquinoline-3-carboxylate], for which the EC50 was 16.2 nM in data set [1] and more than 20 µM in data set [3]. In addition, in data set [2], the negative logarithm of the EC50 (pEC50) is 7.07. Moreover, the solubility in data set [4] (setting [8]) and in data set [4] (setting [11]) was 60 to 80 µM (≈ 22.6 to 30.2 µg/mL) in each case. Moreover, in data set [4] (pH 2.0), the “Solubility pH 2.0 (μM)” value was 60-79.9 μM. The “Solubility pH 6.5 (μM)” value in data set [4] (pH 6.5) was 60-79.9 μM. This molecule also had a chromatographic logD in data set [5] of 2.21. Further, the inhibition in vivo at 50 mg/kg in data set [6] (Plasmodium berghei, 144 h, vs untreated animals, read-out: % Inhibition Day 6 PI) is approximately 40%.
Take `COC(=O)c1c[nH]c2cc(N3CCN(c4ccc(OC)cc4)CC3)c(OC)cc2c1=O` [Compound 8f, Methyl 6-methoxy-7-(4-(4-methoxyphenyl)piperazin-1-yl)-4-oxo-1,4-dihydroquinoline-3-carboxylate]: the EC50 is 42.9 nM in data set [1], 1980 nM in data set [7] and more than 20 µM in data set [3]. Moreover, in data set [7], the RI turned out to be 46.2. Also, the pEC50 in data set [2] is less than 7.00. The solubility in data set [4] (setting [9]) was 60 to 79.9 µM (≈ 25.4 to 33.8 µg/mL); in data set [4] (setting [10]), 20 to 39.9 µM (≈ 8.47 to 16.9 µg/mL). Further, the chromatographic logD in data set [5] came out at 2.48.
Turning to `COC(=O)c1c[nH]c2cc(N3CCN(Cc4ccccc4)CC3)c(C)cc2c1=O` [Compound 8g, Methyl 7-(4-benzylpiperazin-1-yl)-6-methyl-4-oxo-1,4-dihydroquinoline-3-carboxylate], the EC50 in data set [1] was 13.2 nM; in data set [7] it was 982 nM; in data set [3], more than 20 µM. Further, in data set [7], the RI is reported as 74.4. The pEC50 in data set [2] was less than 7.00. For the same molecule, the solubility in data set [4] (setting [8]) and in data set [4] (setting [11]) was not below 80 µM each time. Further, the chromatographic logD in data set [5] is 2.37.
For `COC(=O)c1c[nH]c2cc(CN3CCN(Cc4ccccc4)CC3)ccc2c1=O` [Compound 8k, Methyl 7-((4-benzylpiperazin-1-yl)methyl)-4-oxo-1,4-dihydroquinoline-3-carboxylate], the EC50 in data set [1] is 1.41 nM; in data set [7] it was 153 nM; in data set [3], 10.4 µM. In addition, the pEC50 in data set [2] was 7.36. Also, the solubility in data set [4] (setting [8]) and in data set [4] (setting [11]) was not below 80 µM in each case. Besides, the chromatographic logD in data set [5] came to 2.06. Further, in data set [6] (vs untreated animals), the “% Inhibition Day 6 PI” value is recorded as “little to moderate protection”.
For the molecule `COC(=O)c1c[nH]c2cc(CN3CCN(c4ccc(OC)cc4)CC3)ccc2c1=O` [Compound 8n, Methyl 7-((4-(4-methoxyphenyl)piperazin-1-yl)methyl)-4-oxo-1,4-dihydroquinoline-3-carboxylate], the EC50 in data set [1] was determined as 3.56 nM; in data set [7], 222 nM; in data set [2] (HepG2, text values printed in pM), 123 pM. Further, the pEC50 in data set [2] is 9.91. The results for the solubility in data set [4] (setting [9]) and in data set [4] (setting [10]) were not below 80 µM and 40 to 59.9 µM (≈ 16.3 to 24.4 µg/mL), respectively. In data set [5], this molecule displayed a chromatographic logD of 2.11. Moreover, the “% Inhibition Day 6 PI” value in data set [6] (vs untreated animals) is on record as “little to moderate protection”.
`COC(=O)c1c[nH]c2cc(CN3CCN(c4ccc(OC)cc4)CC3)c(C)cc2c1=O` [Compound 8t, Methyl 7-((4-(4-methoxyphenyl)piperazin-1-yl)methyl)-6-methyl-4-oxo-1,4-dihydroquinoline-3-carboxylate]: the EC50 in data set [1] was 0.575 nM; in data set [7], 177 nM; in data set [3], more than 20 µM. The RI in data set [7] was determined as 308. Further, in data set [2], the pEC50 was 8.39. The solubility in data set [4] (setting [9]) was not below 80 µM; in data set [4] (setting [10]), 20 to 39.9 µM (≈ 8.43 to 16.8 µg/mL). The chromatographic logD in data set [5] is 2.61.
Take `COC(=O)c1c[nH]c2cc(CN3CCN(c4ccc(F)cc4)CC3)c(C)cc2c1=O` [Compound 8u, Methyl 7-((4-(4-fluorophenyl)piperazin-1-yl)methyl)-6-methyl-4-oxo-1,4-dihydroquinoline-3-carboxylate]: the figures for the pEC50 in data set [1] (read-out: EC50 W2) and in data set [2] were 9.07 and 8.58, respectively. Moreover, the figures for the EC50 in data set [1], in data set [7] and in data set [3] were 0.843 nM, 348 nM and 15.7 µM, respectively. For the same molecule, the solubility is not below 80 µM in data set [4] (setting [9]) and 40 to 59.9 µM (≈ 16.4 to 24.5 µg/mL) in data set [4] (setting [10]). In data set [5], this molecule showed a chromatographic logD of 2.9.
